Earlier results in patent US11649238B2, “Substituted pyrazolo[1,5-a]pyrimidines as PI4K inhibitors” (GLAXOSMITHKLINE INTELLECTUAL PROPERTY DEVELOPMENT LIMITED, priority 2018, dated 2023).

Conditions: intranasal administration, cited from earlier work; for accumulation of compound in lung tissue: rat model

| SMILES | accumulation of compound in lung tissue | histological findings following IN dose (rat nasal cavity and lung) |
| --- | --- | --- |
| COc1ccc(-c2c(C)nn3c(NCc4cccc(-n5cccc5)c4)cc(OCCCN(C)C)nc23)cc1S(C)(=O)=O [GSK3180404A] | substantial accumulation of compound in lung tissue | – |
| Cc1cc(NCc2cccc(-n3cccc3)c2)n2nc(C)c(-c3ccc(Cl)c(C(=O)N(C)CCN(C)C)c3)c2n1 [GSK3159043A] | substantial accumulation of compound in lung tissue | ulceration in the rat nasal cavity and bronchial epithelial hyperplasia in the rat lung |
